Here are results for 55 compounds from US8362000B2, “Azetidinyl diamides as monoacylglycerol lipase inhibitors” (Janssen Pharmaceutica NV, priority 2009, dated 2013).

As usually defined, the IC50 is the midpoint of a concentration-inhibition curve. The Kd is the free concentration of one partner at which half of the binding sites on the other are occupied at equilibrium, for simple one-to-one binding.

Positions count from the first letter of the chain named.

In the first assay the target is T1, purified wild type MGL (wt-MGLL 6H-11-313) (Homo sapiens, UniProt Q99685).
T1 sequence (Q99685 1-303): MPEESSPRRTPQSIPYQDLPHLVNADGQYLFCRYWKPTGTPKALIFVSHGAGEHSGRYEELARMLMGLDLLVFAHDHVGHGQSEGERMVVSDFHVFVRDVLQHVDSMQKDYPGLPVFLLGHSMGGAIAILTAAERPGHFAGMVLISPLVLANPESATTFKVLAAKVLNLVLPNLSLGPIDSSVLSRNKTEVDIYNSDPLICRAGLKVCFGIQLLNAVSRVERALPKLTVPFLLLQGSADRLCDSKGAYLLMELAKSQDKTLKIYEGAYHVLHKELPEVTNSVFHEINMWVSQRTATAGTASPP
Test: not given
Conditions: not given
Turning to `O=C(c1nccs1)N1CC(N2CCN(C(=O)c3nc4cc(Cl)ccc4s3)CC2)C1` [Cpd 764], the IC50 amounted to 636 nM.
Turning to `O=C(c1ccc(Oc2ccccc2Cl)nc1)N1CC(N2CCN(C(=O)c3nccs3)CC2)C1` [Cpd 708], the IC50 worked out at 106 nM.
With `Cc1nc2cc(C(=O)N3CC(N4CCN(C(=O)c5ccccc5)CC4)C3)ccc2n1-c1ccccc1` [Cpd 635], the IC50 amounted to 838 nM.
On to `Cn1cc(-c2cccc(C(F)(F)F)c2)c2ccc(C(=O)N3CC(N4CCN(C(=O)c5nccs5)CC4)C3)cc21` [Cpd 1100], for which inhibition was half-maximal at 12 nM (IC50).
Consider `O=C(c1ccc2c(c1)CCN(Cc1cccc(C(F)(F)F)c1)C2)N1CC(N2CCN(C(=O)c3nccs3)CC2)C1` [Cpd 879], for which the IC50 was under 5 nM.
Compound `O=C(c1cscn1)N1CCN(C2CN(C(=O)c3nc4cc(Cl)ccc4s3)C2)CC1` [Cpd 855] showed an IC50 of 8440 nM.
`Cc1nn(-c2ccc(F)cc2)c(C)c1C(=O)N1CC(N2CCN(C(=O)c3nccs3)CC2)C1` [Cpd 1301] yielded an IC50 of 4610 nM.
In turn, `Cc1nc2cc(C(=O)N3CC(N4CCN(C(=O)c5cscn5)CC4)C3)ccc2n1C1CCC(F)(F)CC1` [Cpd 1506] returned an IC50 of over 16700 nM.
Regarding `Cc1cccc(Nc2ccccc2C(=O)N2CC(N3CCN(C(=O)c4nccs4)CC3)C2)c1C` [Cpd 744], the IC50 was 335 nM.
`O=C(c1ccc(Oc2cc(C(F)(F)F)ccn2)cc1)N1CC(N2CCN(C(=O)c3nccs3)CC2)C1` [Cpd 652] showed an IC50 of 7 nM.
Regarding `O=C(c1cccc(-c2ccc(C(F)(F)F)cc2)c1)N1CC(N2CCN(C(=O)c3nccs3)CC2)C1` [Cpd 149], half-maximal inhibition (IC50) required 76.9 nM.
Consider `O=C(c1nccs1)N1CCN(C2CN(C(=O)c3ccccc3Nc3cccc(C(F)(F)F)c3)C2)CC1` [Cpd 768], for which the IC50 was determined as 697 nM.
`Cc1c(C(=O)N2CC(N3CCN(C(=O)c4cscn4)CC3)C2)oc2c(F)cccc12` [Cpd 871] came in with an IC50 of 13300 nM.
Consider `Cn1cc(Cc2cccc(F)c2)c2ccc(C(=O)N3CC(N4CCN(C(=O)c5nccs5)CC4)C3)cc21` [Cpd 1033, 3-(3-Fluorobenzyl)-1-methyl-6-({3-[4-(1,3-thiazol-2-ylcarbonyl)piperazin-1-yl]azetidin-1-yl}carbonyl)-1H-indole], for which the IC50 was under 5 nM.
`Cc1c(-c2ccccc2)oc2c(C(=O)N3CCN(C4CN(C(=O)c5ccccc5)C4)CC3c3ccccc3)cccc2c1=O` (stereo not shown) [Cpd 1489] showed an IC50 of over 16700 nM.
In turn, `O=C(c1ccc2[nH]c(Cc3ccccc3)nc2c1)N1CC(N2CCN(C(=O)c3nccs3)CC2)C1` [Cpd 1004] came in with an IC50 of 167 nM.
Consider `O=C(c1ccc2[nH]c(Cc3ccccc3)nc2c1)N1CC(N2CCN(C(=O)c3cscn3)CC2)C1` [Cpd 1003], for which the IC50 turned out to be 1610 nM.
`O=C(c1ccc2nc(Cc3ccccc3)[nH]c2c1)N1CCN(C2CN(C(=O)c3nccs3)C2)CC1` [Cpd 1001] registered an IC50 of 1400 nM.
`O=C(c1ccc2[nH]c(CCc3ccccc3)nc2c1)N1CC(N2CCN(C(=O)c3nccs3)CC2)C1` [Cpd 1000]: the midpoint of inhibition, the IC50, lay at 111 nM.
The same measure, in the same setting: the value for `Cc1cc(-c2cccc(C(F)(F)F)c2)ccc1C(=O)N1CCN(C2CN(C(=O)c3cscn3)C2)CC1` [Cpd 1212] was 204 nM.
As to `O=C(c1ccc(S(=O)(=O)c2cccc(C(F)(F)F)c2)cc1)N1CC(N2CCN(C(=O)C(F)(F)F)CC2)C1` [Cpd 1493], the IC50 was over 16700 nM.
`O=C(c1nccs1)N1CCN(C2CN(C(=O)c3ccccc3Nc3cccc(F)c3)C2)CC1` [Cpd 754] yielded an IC50 of 447 nM.
`O=C(c1ccc2nc(CCc3ccccc3)[nH]c2c1)N1CCN(C2CN(C(=O)c3cscn3)C2)CC1` [Cpd 1002]: the IC50 was 5290 nM.
The same measure, in the same setting: the value for `CC1CN(C2CN(C(=O)c3ccc(-c4ccccc4)cc3)C2)CCN1C(=O)c1nccs1` (stereo not shown) [Cpd 117] was 4230 nM; that for `O=C(c1ccc(-c2ccccc2)cc1)N1CC(N2CCN(C(=O)C3CC3)CC2)C1` [Cpd 303] was 173 nM; that for `COc1cccc2c(C)c(C(=O)N3CCN(C4CN(C(=O)c5nccs5)C4)CC3)[nH]c12` [Cpd 846] was 6450 nM.
Same read-out and setting: the value for `O=C(c1nccs1)N1CCN(C2CN(C(=O)c3ccccc3Nc3ccccc3)C2)CC1` [Cpd 781] was 1040 nM.
Turning to `Cc1ccc(-n2nc(C)c(C(=O)N3CC(N4CCN(C(=O)c5nccs5)CC4)C3)n2)cc1` [Cpd 1214], the half-maximal inhibitory concentration (IC50) is 209 nM.
Compound `O=C(c1nccs1)N1CCN(C2CN(C(=O)c3nc4cc(Cl)ccc4s3)C2)CC1` [Cpd 728] registered an IC50 of 231 nM.
The compound `O=C(c1ccc(S(=O)(=O)c2ccccc2)cc1)N1CC(N2CCN(C(=O)c3cscn3)CC2)C1` [Cpd 822] displayed an IC50 of 2860 nM.
Same read-out and setting: the value for `O=C(c1ccc2[nH]c3c(c2c1)CCCC3)N1CC(N2CCN(C(=O)c3cscn3)CC2)C1` [Cpd 817] was 2700 nM; that for `O=C(c1ccccc1)N1CCN(C2CN(C(=O)c3ccc4c(-c5ccccc5)ncnc4c3)C2)CC1` [Cpd 604] was 1840 nM.
Same read-out and setting: the value for `Cn1c2ccccc2c2cc(C(=O)N3CC(N4CCN(C(=O)c5cscn5)CC4)C3)ccc21` [Cpd 767] was 691 nM.
Compound `O=C(c1cscn1)N1CCN(C2CN(C(=O)c3nc4ccc(F)cc4[nH]3)C2)CC1` [Cpd 1442] displayed an IC50 of over 16700 nM.
Compound `Cc1nn(-c2ccc(Cl)cc2)nc1C(=O)N1CC(N2CCN(C(=O)c3nccs3)CC2)C1` [Cpd 1218] yielded an IC50 of 222 nM.
Take `Cn1cc(-c2ccccc2)c2ccc(C(=O)N3CC(N4CCN(C(=O)c5ccccc5)CC4)C3)cc21` [Cpd 585]: the IC50 was found to be 107 nM.
For `O=C(c1nccs1)N1CCN(C2CN(C(=O)c3cnn(-c4ccccc4)c3-c3ccccc3)C2)CC1` [Cpd 1297], the IC50 was determined as 3310 nM.
The compound `Cc1c(-c2ccccc2)oc2c(C(=O)N3CCN(C4CN(C(=O)c5nccs5)C4)CC3c3ccccc3)cccc2c1=O` (stereo not shown) [Cpd 854] displayed an IC50 of 8410 nM.
The same measure, in the same setting: the same measure for `Cc1c(-c2ccccc2)oc2c(C(=O)N3CCN(C4CN(C(=O)c5cscn5)C4)CC3c3ccccc3)cccc2c1=O` (stereo not shown) [Cpd 1436]: over 16700 nM; for `Cn1cc(-c2ccc(F)cc2)c2ccc(C(=O)N3CC(N4CCN(C(=O)c5nccs5)CC4)C3)cc21` [Cpd 1318, 3-(4-Fluorophenyl)-1-methyl-6-({3-[4-(1,3-thiazol-2-ylcarbonyl)piperazin-1-yl]azetidin-1-yl}carbonyl)-1H-indole]: under 5 nM.
Compound `O=C(c1ccc2nc(-c3ccccc3)oc2c1)N1CCN(C2CN(C(=O)c3cscn3)C2)CC1` [Cpd 1275] came in with an IC50 of 1720 nM.
`O=C(c1ccccc1)N1CCN(C2CN(C(=O)c3ccc(Oc4ccccc4Cl)nc3)C2)CC1` [Cpd 521]: the IC50 was determined as 2190 nM.
For the compound `O=C(c1ccccc1)N1CCN(C2CN(C(=O)c3cc4cc(C(F)(F)F)ccc4s3)C2)CC1` [Cpd 124], the IC50 is 321 nM.
`O=C(c1ccc(CS(=O)(=O)c2cccc(C(F)(F)F)c2)cc1)N1CC(N2CCN(C(=O)C(F)(F)F)CC2)C1` [Cpd 1498] displayed an IC50 of over 16700 nM.
Still for that read-out and setting: the same measure for `O=C(c1cscn1)N1CC(N2CCN(C(=O)c3nc4cc(Cl)ccc4s3)CC2)C1` [Cpd 821]: 2850 nM; for `Cc1cn(-c2ccc(F)cc2)c2ccc(C(=O)N3CC(N4CCN(C(=O)c5ccccc5)CC4)C3)cc12` [Cpd 584]: 105 nM.
The same measure, in the same setting: the same measure for `Cn1cc(-c2cccc(C(F)(F)F)c2)c2ccc(C(=O)N3CC(N4CCN(C(=O)c5cscn5)CC4)C3)cc21` [Cpd 1084]: 9 nM.

Another assay concerns the target T2, mutant MGL (Homo sapiens, UniProt Q99685, L169S/L176S).
T2 sequence (Q99685 1-303 L169S/L176S): T1 sequence (Q99685 1-303) with L169S, L176S
As to the kind of experiment: MGL ThermoFluor assay - mutant. It counts as binding. To be noted: ThermoFluor concentration-response, read-out: MGL mutant ThermoFluor Kd.
Regarding `O=C(/C=C/c1ccccc1Br)N1CC(N2CCN(C(=O)c3ccccc3)CC2)C1` [Cpd 104, 1-{1-[(2E)-3-(2-Bromophenyl)prop-2-enoyl]azetidin-3-yl}-4-(phenylcarbonyl)piperazine], the Kd was 5000 nM.
`O=C(c1ccccc1)N1CCN(C2CN(C(=O)c3ccc(N4CCCC4)cc3)C2)CC1` [Cpd 29, 1-(Phenylcarbonyl)-4-{1-[(4-pyrrolidin-1-ylphenyl)carbonyl]azetidin-3-yl}piperazine]: the dissociation constant (Kd) was 100 nM.
For `O=C(c1ccc(-c2ccccc2)cc1)N1CC(N2CCN(C(=O)c3nccs3)CC2c2ccccc2)C1` (stereo not shown) [Cpd 114], the Kd was 3.33 nM.

The assay is the same for the next values; noted with them: ThermoFluor thermal stability binding assay, read-out: MGL mutant ThermoFluor Kd.
In the case of `O=C(c1ccc2c(c1)CCCN2c1ccccc1)N1CC(N2CCN(C(=O)c3nccs3)CC2)C1` [Cpd 372, 1-Phenyl-6-({3-[4-(1,3-thiazol-2-ylcarbonyl)piperazin-1-yl]azetidin-1-yl}carbonyl)-1,2,3,4-tetrahydroquinoline], the Kd is 49.4 nM.
For the compound `O=C(c1ccccc1)N1CCN(C2CN(C(=O)c3ccc4nc(-c5cccc(C(F)(F)F)c5)oc4c3)C2)CC1` [Cpd 131, 6-({3-[4-(Phenylcarbonyl)piperazin-1-yl]azetidin-1-yl}carbonyl)-2-[3-(trifluoromethyl)phenyl]-1,3-benzoxazole], the Kd is 94.1 nM.
Same read-out and setting: the same measure for `O=C(c1ccc(-c2ccccc2)cc1)N1CC(N2CCN(C(=O)C3CCCC3)CC2)C1` [Cpd 1398]: 182 nM; for `O=C(/C=C/c1ccccc1Br)N1CC(N2CCN(C(=O)c3nccs3)CC2)C1` [Cpd 296, 1-{1-[(2E)-3-(2-Bromophenyl)prop-2-enoyl]azetidin-3-yl}-4-(1,3-thiazol-2-ylcarbonyl)piperazine]: 476 nM; for `O=C(c1ccccc1)N1CCN(C2CN(C(=O)c3ccc(OCc4ccc5ccccc5n4)cc3)C2)CC1` [Cpd 560]: 652 nM.
